# In patent US20180265877A1, “METHODS AND COMPOSITIONS FOR AGROBACTERIUM COMPRISING NEGATIVE SELECTION MARKERS” (PIONEER HI-BRED INTERNATIONAL, INC., priority 2015, published 2018):
# What was measured:
# [1] = system: AGL0 mutant strain (THY−/codA+); experiment: Growth of AGL0 THY−/codA+ on 5-fluorocytosine; assay type: cell-based, Agrobacterium
# Description: (§1) The newly developed AGL0 mutant strain (THY−/codA+, see Example 1) was plated on varying concentrations of 5-fluorocytosine to assess growth. This strain, along with wild-type AGL0 were cultured overnight in liquid medium, diluted to 10^7 CFU and then 100 μl of suspension was plated onto minimal Agro medium+/− thymidine, with either 0, 100, 200 or 300 μg/ml 5-fluorocytosine, for a total of 8 treatments. After 72 hours at 28° C., the plates were scored for Agrobacterium growth.
# AGL0 THY− = experiment: Agrobacterium growth assay on solid medium, thymidine auxotroph AGL0 THY−; assay type: cell-based; details: thy 50 mg/l, 5-fluorouracil 0 μg/ml, after 24 hours
# Description: (§2) In Table 4, results of a more detailed kill-curve for strain AGL0 on 5-fluorouracil are shown. […] Finally, a third experiment was performed using either wild-type AGL0 or an auxotrophic mutant of AGL0 in which the gene encoding thymidylate synthase was inactivated, rendering the bacteria incapable of growth in the absence of thymidine (this strain was referred to as AGL0 THY−). The two strains were plated at high densities (10^6 or 10^8 CFU/plate) onto medium containing 0, 1 or 3 μg/ml 5-fluorouracil, with each of these three treatments containing either 0 or 50 mg/l thymidine.
# [2] = system: Agrobacterium strain AGL0; experiment: Agrobacterium growth assay on solid minimal medium, wild-type AGL0; assay type: cell-based; parameters: key to Growth score: a score of zero (0) indicating no visible colonies; 1+ indicating a few isolated colonies; ++: progressing up to 5+; +++: progressing up to 5+; ++++: progressing up to 5+; +++++: 5+ indicating a confluent lawn
# Description: (§3) For all Agrobacterium growth-assay experiments, standard Agrobacterium minimal medium was used, with no additives as a control treatment, or with the addition of either 5-fluorocytosine, 5-fluorouracil or thymidine. To begin these tests, experiments were conducted to test for growth of wild-type and mutant AGL0 Agrobacterium strains on either 5-fluorocytosine (5-fluorocytosine, the non-toxic substrate of the CODA protein) or 5-fluorouracil (5-fluorouracil, the toxic product).
# as §2, §1
# [3] = system: four Agrobacterium strains (AGL0, LBA4404, EHA101 and EHA105); experiment: Agrobacterium growth assay, the four strains; assay type: cell-based; details: 5-fluorocytosine up to the highest concentration tested (1000 μg/ml)
# Description: as §3
# [4] = system: Agrobacterium strain EHA101; experiment: Agrobacterium growth assay on solid minimal medium, EHA101; assay type: cell-based; parameters: key: a score of zero (0) indicating no visible colonies; 1+ indicating a few isolated colonies; ++: progressing up to 5+; +++: progressing up to 5+; ++++: progressing up to 5+; +++++: 5+ indicating a confluent lawn; details: EHA101 plated at 1 x 10^4, after 3 days
# Description: as §3
# [5] = system: Agrobacterium strain LBA4404; experiment: Agrobacterium growth assay on solid minimal medium, LBA4404; assay type: cell-based; parameters: key: a score of zero (0) indicating no visible colonies; 1+ indicating a few isolated colonies; ++: progressing up to 5+; +++: progressing up to 5+; ++++: progressing up to 5+; +++++: 5+ indicating a confluent lawn; details: LBA4404 plated at 1 × 10^4, after 3 days
# Description: as §3
# [6] = system: Agrobacterium strain EHA105; experiment: Agrobacterium growth assay on solid minimal medium, EHA105; assay type: cell-based; parameters: key: a score of zero (0) indicating no visible colonies; 1+ indicating a few isolated colonies; ++: progressing up to 5+; +++: progressing up to 5+; ++++: progressing up to 5+; +++++: 5+ indicating a confluent lawn; details: EHA105 plated at 1 × 10^4, after 3 days
# Description: as §3
# [7] = system: immature embryos of inbred PHH5G; experiment: Callus initiation from corn immature embryos, inbred PHH5G; assay type: cell-based; details: for PHH5G: embryos producing a callus response / embryos plated / Embryo with culture - Response (callus initiation frequency): 18 d cultured on 13152C; for Embryo with culture - Response (callus initiation frequency): PHH5G
# Description: (§4) Agrobacterium was tolerant of the substrate (5-fluorocytosine) and was inhibited by low levels of the converted product (5-fluorouracil). An experiment was performed to determine whether corn immature embryos and growing callus were sensitive to the substrate, 5-fluorocytosine. Immature embryos of two inbred lines ([…] or PHH5G, representative non-stiff-stalk and stiff-stalk Pioneer Hi-Bred inbreds) were plated onto appropriate callus culture media (see Table 6) supplemented with 0, 100, […]
# [8] = system: immature embryos of inbred HC69; experiment: Callus initiation from corn immature embryos, inbred HC69; assay type: cell-based; details: for HC69: embryos producing a callus response / embryos plated / Embryo with culture - Response (callus initiation frequency): 18 d cultured on 13152C; for Embryo with culture - Response (callus initiation frequency): HC69
# Description: as §4
structure (smiles),measurement,setting,value
"Cc1cn([C@H]2C[C@H](O)[C@@H](CO)O2)c(=O)[nH]c1=O [thy, thymidine]",Growth,"[1]; 50 mg/l thymidine, no 5-fluorocytosine, 72 hours",confluent lawn of colonies
same,Growth score,AGL0 THY−; AGL0 THY- 1 x 10^6,+++
same,Growth score,AGL0 THY−; AGL0 THY- 1 x 10^8,+++
same,Growth score,"[2]; AGL0 1 x 10^6, thy 50 mg/l, 5-fluorouracil 0 μg/ml, after 24 hours",+++
same,Growth score,"[2]; AGL0 1 x 10^8, thy 50 mg/l, 5-fluorouracil 0 μg/ml, after 24 hours",+++
Nc1nc(=O)[nH]cc1F [5-fluorocytosine],Growth inhibition,[3],no apparent growth inhibition
same,Growth,"[1]; 100, 200 or 300 μg/ml 5-fluorocytosine, thymidine present, 72 hours at 28° C.",did not grow
same,Growth score,[4]; 500 μg/ml 5-fluorocytosine,+++
same,Growth score,[4]; 1000 μg/ml 5-fluorocytosine,+++
same,Growth score,[5]; 500 μg/ml 5-fluorocytosine,+++
same,Growth score,[5]; 1000 μg/ml 5-fluorocytosine,+++
same,Growth score,[6]; 500 μg/ml 5-fluorocytosine,+++
same,Growth score,[6]; 1000 μg/ml 5-fluorocytosine,+++
same,PHH5G: embryos producing a callus response / embryos plated,[7]; 100 μg/ml 5-fluorocytosine,12/50
same,PHH5G: embryos producing a callus response / embryos plated,[7]; 250 μg/ml 5-fluorocytosine,18/50
same,PHH5G: embryos producing a callus response / embryos plated,[7]; 400 μg/ml 5-fluorocytosine,8/25
same,Embryo with culture - Response (callus initiation frequency),[7]; 100 μg/ml 5-fluorocytosine,24%
same,Embryo with culture - Response (callus initiation frequency),[7]; 250 μg/ml 5-fluorocytosine,36%
same,Embryo with culture - Response (callus initiation frequency),[7]; 400 μg/ml 5-fluorocytosine,32%
same,Callus initiation frequency or callus growth rates vs no 5-fluorocytosine,"[7]; inbred PHH5G, 100, 250 or 400 μg/ml 5-fluorocytosine, 3 weeks",no discernible differences
same,HC69: embryos producing a callus response / embryos plated,[8]; 100 μg/ml 5-fluorocytosine,32/50
same,HC69: embryos producing a callus response / embryos plated,[8]; 250 μg/ml 5-fluorocytosine,34/50
same,HC69: embryos producing a callus response / embryos plated,[8]; 400 μg/ml 5-fluorocytosine,34/50
same,Embryo with culture - Response (callus initiation frequency),[8]; 100 μg/ml 5-fluorocytosine,64%
same,Embryo with culture - Response (callus initiation frequency),[8]; 250 μg/ml 5-fluorocytosine,68%
same,Embryo with culture - Response (callus initiation frequency),[8]; 400 μg/ml 5-fluorocytosine,68%
same,Callus initiation frequency or callus growth rates vs no 5-fluorocytosine,"[8]; inbred printed as HC96, 100, 250 or 400 μg/ml 5-fluorocytosine, 3 weeks",no discernible differences
same,Growth score,"[2]; AGL0 plated at 1 × 10^4, 500 μg/ml 5-fluorocytosine, after 3 days",+++
same,Growth score,"[2]; AGL0 plated at 1 × 10^4, 1000 μg/ml 5-fluorocytosine, after 3 days",+++
same,Growth score,"[2]; AGL0 plated at 4 × 10^7, 500 μg/ml 5-fluorocytosine, after 3 days",+++++
same,Growth score,"[2]; AGL0 plated at 4 × 10^7, 1000 μg/ml 5-fluorocytosine, after 3 days",+++++
same,Growth,"[2]; wild-type AGL0, 100, 200 or 300 μg/ml 5-fluorocytosine, +/− thymidine, 72 hours at 28° C.",grew under all 5-fluorocytosine concentrations
